Test results published in US20210369720A1, “SYNERGISTIC COMPOSITION HAVING NEUROPROTECTIVE PROPERTIES AND METHODS OF USE THEREOF” (Rutgers, The State University of New Jersey, priority 2018, published 2021).

Key:
Syn^Tg mice [1] = assay: Rotarod, Syn^Tg mice; format: in vivo; conditions: EHT 12 mg/kg/day in chow and/or caffeine 50 mg/kg/day in drinking water from weaning until six months of age, vs untreated Syn^Tg mice
Description: (§1) Thy1-α-synuclein transgenic mice (Syn^Tg) on BDF1 background overexpressing human wild-type α-synuclein under the control of the Thy1 promoter were maintained by mating heterozygous transgenic females with WT BDF1 males (Rockenstein E, et al. (2002) Differential neuropathological alterations in transgenic mice expressing alpha-synuclein from the platelet-derived growth factor and Thy-1 promoters. J Neurosci Res 68(5):568-578). BDF1 mice (mixed C57BL/6-DBA/2) were generated every three months by mating female C57BL/6 (The Jackson Laboratory) and male DBA/2 mice (Charles River). Experiments were performed with male transgenic mice and their WT littermates. […] Wild-type littermates received regular water and control chow. […] At two months of age, mice were inoculated with α-Syn PFF unilaterally in the striatum. These treatments continued throughout the experiment until animals were sacrificed. Mice were weighed and their food and water intake was quantified weekly. Animals were housed 2-5/cage in an AAALAC approved facility in a temperature- and humidity-controlled environment under a 12-hour light/dark cycle and were maintained on a diet of lab chow and water ad libitum. […]

Syn^Tg mice [2] = assay: Wire Hang test, Syn^Tg mice; format: in vivo; conditions: EHT 12 mg/kg/day in chow and/or caffeine 50 mg/kg/day in drinking water from weaning until six months of age, vs untreated Syn^Tg mice
Description: as §1

Syn^Tg mice [3] = assay: Nesting behavior, Syn^Tg mice; format: in vivo; conditions: EHT 12 mg/kg/day in chow and/or caffeine 50 mg/kg/day in drinking water from weaning until six months of age, vs untreated Syn^Tg mice
Description: as §1

Syn^Tg mice [4] = assay: Morris Water Maze, Syn^Tg mice; format: in vivo; conditions: EHT 12 mg/kg/day in chow and/or caffeine 50 mg/kg/day in drinking water from weaning until six months of age, vs untreated Syn^Tg mice
Description: as §1

[5] = system: phosphorylated α-synuclein (p-α-Syn); assay: Western blot of p-α-Syn in cortical tissue lysates, Syn^Tg mice; format: in vivo; conditions: EHT 12 mg/kg/day and/or caffeine 50 mg/kg/day until six months of age, vs untreated Syn^Tg mice
Description: as §1, with “weekly.” for “weekly. Animals were housed 2-5/cage in an AAALAC approved facility in a temperature- and humidity-controlled environment under a 12-hour light/dark cycle and were maintained on a diet of lab chow and water ad libitum.”
(§2) Human neuroblastoma SH-SY5Y cells were cultured in DMEM-F12 with 10% FBS. […] Protein concentration was determined by bicinchonic acid (BCA) method (Pierce), equal amount of protein was separated on 5-20% SDS-PAGE gel (Genescript) and transferred to nitrocellulose or PVDF membrane (Biorad). […]

MAP2 = assay: Immunofluorescence staining of MAP2 in the cortex, Syn^Tg mice; format: in vivo; conditions: EHT 12 mg/kg/day and/or caffeine 50 mg/kg/day until six months of age
Description: as §1

PP2A [6] = assay: Western blot of PP2A methylation, striatal tissue lysates of Syn^Tg mice; format: in vivo; conditions: normalized to total PP2A, EHT 12 mg/kg/day and/or caffeine 50 mg/kg/day
Description: (§3) Thy1-α-synuclein transgenic mice (Syn^Tg) on BDF1 background overexpressing human wild-type α-synuclein under the control of the Thy1 promoter were maintained by mating heterozygous transgenic females with WT BDF1 males (Rockenstein E, et al. (2002) Differential neuropathological alterations in transgenic mice expressing alpha-synuclein from the platelet-derived growth factor and Thy-1 promoters. J Neurosci Res 68(5):568-578). BDF1 mice (mixed C57BL/6-DBA/2) were generated every three months by mating female C57BL/6 (The Jackson Laboratory) and male DBA/2 mice (Charles River). Experiments were performed with male transgenic mice and their WT littermates. […] Wild-type littermates received regular water and control chow. […] At two months of age, mice were inoculated with α-Syn PFF unilaterally in the striatum. These treatments continued throughout the experiment until animals were sacrificed. Mice were weighed and their food and water intake was quantified weekly. Animals were housed 2-5/cage in an AAALAC approved facility in a temperature- and humidity-controlled environment under a 12-hour light/dark cycle and were maintained on a diet of lab chow and water ad libitum. All animal procedures were approved by the Rutgers-Robert Wood Johnson Medical School Institutional Animal Care and Use Committee and were performed according to the National Institutes of Health Guide for the Care and Use of Laboratory Animals.
(§4) Human neuroblastoma SH-SY5Y cells were cultured in DMEM-F12 with 10% FBS. At 50% confluency, cells were treated with 1 gg/ml mouse α-Syn PFF in DMEM-F12 with 1% FBS for 7 days. Medium was refreshed every 3 days. Cell harvesting was done with 2% SDS in PBS supplemented with protease inhibitor (Millipore) and phosphatase inhibitor (Sigma-Aldrich). Lysates were sonicated and boiled at 95° C. for 5 minutes. Protein concentration was determined by bicinchonic acid (BCA) method (Pierce), equal amount of protein was separated on 5-20% SDS-PAGE gel (Genescript) and transferred to nitrocellulose or PVDF membrane (Biorad). Following transfer, membranes were blocked for 1 hour at room temperature in blocking buffer (Li-Cor) or 5% (w/v) BSA/TBS-Tween 0.1% (v/v). Primary antibodies were diluted in blocking buffer or 5% (w/v) BSA/TBS-Tween 0.1% (v/v) and incubated with the membranes at 4° C. overnight. Membranes were washed three times in TBS-Tween and incubated in diluted IRDye 800CW or HRP conjugated secondary antibody for 1 hour at room temperature. Following washing, membranes were scanned by Li-Cor Odyssey CLx infrared imaging system or treated with the Western Lightning ECL-plus reagents (PerkinElmer) and exposed to autoradiography films (LabScientific).

[7] = system: α-Syn PFF inoculated WT mice; assay: Rotarod, α-Syn PFF inoculated WT mice; format: in vivo; conditions: EHT 12 mg/kg/day in diet and/or caffeine 50 mg/kg/day in drinking water from weaning, 6 months post-inoculation
Description: as §1

[8] = system: α-Syn PFF inoculated WT mice; assay: Wire Hang test, α-Syn PFF inoculated WT mice; format: in vivo; conditions: EHT 12 mg/kg/day in diet and/or caffeine 50 mg/kg/day in drinking water from weaning, 6 months post-inoculation
Description: as §1

[9] = system: α-Syn PFF inoculated WT mice; assay: Nesting behavior, α-Syn PFF inoculated WT mice; format: in vivo; conditions: EHT 12 mg/kg/day in diet and/or caffeine 50 mg/kg/day in drinking water from weaning, 6 months post-inoculation
Description: as §1

[10] = system: α-Syn PFF inoculated WT mice; assay: Morris Water Maze, α-Syn PFF inoculated WT mice; format: in vivo; conditions: EHT 12 mg/kg/day and/or caffeine 50 mg/kg/day, 6 months post-inoculation, test also not affected by PFF inoculation
Description: as §1

[11] = system: phosphorylated α-synuclein (p-α-Syn); assay: Immunohistochemical staining of p-α-Syn, α-Syn PFF inoculated WT mice; format: in vivo; conditions: EHT 12 mg/kg/day and/or caffeine 50 mg/kg/day, vs untreated α-Syn PFF inoculated mice
Description: as §3
α-Syn PFF solution was sonicated at 60% amplitude 30 times (0.5 sec on, 0.5 sec off). During the stereotactic surgery, two month old WT C57BL/6 mice were anesthetized by Ketamine/xylazine (90/4.5 mg/kg, i.p., Ketaset from Zoetis, and Anased from Akorn) and positioned in a digital stereotaxic apparatus (Stoelting, Wood Dale, Ill.). A midline sagittal incision was made in the scalp, and a hole was drilled in the skull over the right striatum according to the coordinates below. All injections were made using a Hamilton neuros syringe equipped with a 33 gauge needle and attached to a Quintessential Stereotaxic Injector (Stoelting, Wood Dale, Ill.). A total of 5∝g/2.5 ul of α-Syn PFF was infused in the dorsal striatum (+0.2 mm relative to Bregma, +2.0 mm from midline, +2.6 mm beneath the dura) at a delivery rate of 0.2∝l/min (61). The needle was kept in place for 5 min following the infusion to prevent reflux before withdrawing.
Immunohistochemical analyses were performed as described previously (Lee et al., 2011; 2012). Mice were perfused transcardially with PBS, and brains were removed and post-fixed in 10% formalin at 4° C. overnight. Fixed brains were then sectioned coronally in 30 am thickness using a cryostat and collected as sets of slices with the same interval. Free-floating sections were blocked by 1% BSA and 0.2% Triton X100 in PBS. Sections were then incubated with primary antibody overnight at 4° C. and biotinylated secondary antibody for 1 hour at room temperature.
Vectastain elite ABC kit (Vector Laboratories, Burlingame, Calif.) and 3,3′-diaminobenzidine (Sigma-Aldrich) were used for amplifying and color development. Images were captured by Nikon Eclipse 55i. Staining intensity and phosphorylated α-synuclein (p-α-Syn) aggregate counts were obtained by Image Pro Plus. Intensity calibration was set to the level of a blank area in each image. HSI (hue, saturation and intensity) was used for the color selection with the standard parameters of H: 0-30, S: 0-255 and I: 0-160. […]

[12] = system: Tyrosine hydroxylase (TH); assay: Striatal TH staining, α-Syn PFF inoculated WT mice; format: in vivo; conditions: EHT 12 mg/kg/day and/or caffeine 50 mg/kg/day, vs untreated α-Syn PFF inoculated mice
Description: as §1

dopamine = assay: Striatal dopamine content by HPLC-MS, α-Syn PFF inoculated WT mice; format: in vivo; conditions: each compound alone, EHT 12 mg/kg/day or caffeine 50 mg/kg/day, vs untreated α-Syn PFF inoculated mice
Description: as §1

[13] = system: TH positive dopaminergic neurons of the substantia nigra; assay: Nigral TH positive neuron count, α-Syn PFF inoculated WT mice; format: in vivo; conditions: each compound individually, PFF alone reduced neurons by 51% vs PBS
Description: as §1

PP2A [14] = assay: Western blot of PP2A methylation, ipsilateral striatal tissue lysates of α-Syn PFF inoculated mice; format: in vivo; conditions: EHT 12 mg/kg/day and/or caffeine 50 mg/kg/day, vs untreated α-Syn PFF inoculated mice
Description: as §3
α-Syn PFF solution was sonicated at 60% amplitude 30 times (0.5 sec on, 0.5 sec off). During the stereotactic surgery, two month old WT C57BL/6 mice were anesthetized by Ketamine/xylazine (90/4.5 mg/kg, i.p., Ketaset from Zoetis, and Anased from Akorn) and positioned in a digital stereotaxic apparatus (Stoelting, Wood Dale, Ill.). […]
as §2

PP2A [15] = assay: Western blot of PP2A methylation in SH-SY5Y cells challenged with α-Syn PFF; format: cell-based, Human; conditions: SH-SY5Y cells challenged with mouse α-Syn PFF for 7 days; caffeine and/or EHT added to the medium
Experimental: as §4

p-α-Syn = assay: Western blot of p-α-Syn in SH-SY5Y cells challenged with α-Syn PFF; format: cell-based, Human; conditions: SH-SY5Y cells challenged with mouse α-Syn PFF for 7 days; caffeine and/or EHT added to the medium
Experimental: as §4

SH-SY5Y cells = assay: Cytotoxicity of α-Syn PFF by propidium iodide (PI) exclusion in SH-SY5Y cells; format: cell-based, Human; conditions: SH-SY5Y cells challenged with mouse α-Syn PFF for seven days; vs untreated α-Syn PFF-challenged cells (2.5 fold increase of PI positive cells)
[16] = system: A53T mutant α-synuclein fibril injections in the striatum; conditions: mice, chronic caffeine treatment; cited from earlier work

## Cn1c(=O)c2c(ncn2C)n(C)c1=O [Caffeine, 1,3,7-trimethylxanthine, reference compound]
Syn^Tg mice [1]
  performance on the rotarod: did not show any improvement
Syn^Tg mice [2]
  performance on the wire hang test: did not show any improvement
Syn^Tg mice [3]
  nesting behavior: did not show any improvement
Syn^Tg mice [4]
  performance on the Morris Water Maze: did not show any improvement
[5]
  p-α-Syn levels by Western blot, cortical tissue lysates: no significant effect
MAP2
  MAP2 in the cortex (neuritic integrity): did not improve this profile
PP2A [6]
  Demethylated PP2A (demethyl-PP2A) levels: not affected
  Methylated PP2A (Methyl-PP2A) levels: did not change
[7]
  performance on the rotarod: did not affect performance
[8]
  performance on the wire hang test: did not affect performance
[9]
  nesting behavior (nest building): did not affect performance
[10]
  Learning and memory task on the Morris Water Maze: not affected
[11]
  p-α-Syn in the contralateral striatum: partially but insignificantly reduced
  p-α-Syn in the ipsilateral striatum: partially but insignificantly reduced
[12]
  TH staining of dopaminergic terminals in the striatum (ipsilateral and contralateral): no effect
dopamine
  dopamine (DA) content in lysates of the ipsilateral striatum, benefit in words: did not have a significant benefit
[13]
  prevention of the reduction of TH positive dopaminergic neurons of the substantia nigra: did not prevent this reduction
PP2A [14]
  methyl-PP2A levels: insignificant increase
PP2A [15]
  demethylated PP2A levels: partially reversed this trend
  methylated PP2A levels: partially reversed this trend
p-α-Syn
  p-α-Syn levels: no effect
SH-SY5Y cells
  cytotoxicity of α-Syn PFF, number of PI positive cells (cell viability): modestly protected
[16]
  protection against A53T mutant α-synuclein fibril injections in the striatum: protect
